Laboratory results reported in patent US20160139154A1, “METHODS FOR DETERMINING TOTAL BODY SKELETAL MUSCLE MASS” (THE REGENTS OF THE UNIVERSITY OF CALIFORNIA, priority 2013, published 2016).

What was measured:
[1] = Pharmacokinetics of D3-creatine in plasma after a single oral tracer dose; type: in vivo, human; details: healthy subjects
Protocol: Subjects were housed on the in-patient unit for the full 5 day study. Subjects were admitted on Day-1, for baseline evaluation and acclimation.
(§1) In the older subjects, sampling was extended to 72 hr (24, 36, 48, and 72 hr). Urine was collected continuously beginning at baseline, day −1, through day 5 of the study in timed intervals. On Day −1, subjects entered the clinic prior to noon, and timed urine collections began at 12:00 PM with 12:00 PM being time 0 (0-4, 4-8, 8-12, 12-20 h), and completed at 8:00 AM the next day, Day 1.
(§2) Total body creatine pool size and muscle mass were calculated from D3-creatinine enrichment in urine. Total body muscle mass was measured by MRI (serial cross sections), and total lean body mass (LBM) and appendicular lean mass (ALM) were measured by DXA during the subjects' stay on the inpatient unit.

[2] = Urinary excretion and renal clearance of the D3-creatine tracer dose; type: in vivo, human
Protocol: as §1, §2
The data were analyzed in SAS v9.2 (SAS Institute, Cary, N.C.) and graphs were produced in either SAS or TSCG. […] There were no adjustments for multiplicity.

[3] = in vivo, po
Protocol: Enrichment of D3-creatinine in urine to total creatinine in urine was determined for each urine collection interval. Achievement of steady-state enrichment was determined by a combination of visual inspection and linear regression. […] Linear regression of the enrichment ratio on time (midpoint of the urine collection interval) was performed for each subject separately. […] The earliest time point included in the final regression was defined as the time to achievement of steady-state.

| Compound | cleared from plasma ([1]; single oral tracer dose 30-100 mg, within 24 h) [%] | cleared from plasma by 72 h ([1]; single oral tracer dose, by 72 h) | % of D3-creatine recovered in urine over 120 h ([2]; range across subjects, single oral dose 30-100 mg) [%] | time to achievement of steady-state enrichment in urine [3] [h] | renal clearance ([2]; human, in vivo) [mL/min] | renal clearance as % of the dose ([2]; human, in vivo) |
| --- | --- | --- | --- | --- | --- | --- |
| [2H]C([2H])([2H])N(CC(=O)O)C(=N)N [D3-creatine] | ~80 | essentially cleared | 0.1 to 34 |  |  |  |
| D3-creatinine |  |  |  | 30.7 | 0.26 to 56 | 0.1% to 34 |
